Measured values as given in ChEMBL document CHEMBL3804762, “Novel indoleflutimide heterocycles with activity against influenza PA endonuclease and hepatitis C virus” (Medchemcomm, 2016).
Active and inactive are the calls of the source. The calls are words filed in the database; no cut-off is given here.

Columns and labels:
[1] = system: Hepatitis C virus; test: Antiviral activity against HCV Con1 infected in human Huh5-2 cells haboring firefly luciferase expressing subgenomic replicon of HCV genotype 1b after 72 hrs by luciferase reporter gene assay; assay type: functional, organism-based, Hepacivirus hominis; conditions: isolate Con1, Huh-5-2, 72 h
[2] = Cytotoxicity against HEK293T cells assessed as effect on cell morphology after 24 hrs by microscopic analysis; assay type: cell-based, HEK-293T; conditions: human
[3] = Lipophilicity, log D of compound; assay type: physicochemical; conditions: octanol/water
[4] = biological target: T1, Polymerase acidic protein (Influenza A virus (strain A/X-31 H3N2), UniProt Q9IQ47); test: Inhibition of recombinant Influenza A/X-31 virus PA infected in HEK293T cells after 2 hrs by vRNP reconstitution assay; assay type: cell-based, Influenza A virus (A/X-31(H3N2)), HEK-293T
[5] = Selectivity index, ratio of LC50 for human Huh5-2 cells to EC50 for HCV Con1 infected in human Huh5-2 cells haboring firefly luciferase expressing subgenomic replicon of HCV genotype 1b; design: species or system Huh-5-2
[6] = biological target: T1, Polymerase acidic protein; test: Inhibition of recombinant Influenza A/X-31 virus PA (N-terminal amino acid residue 1-217) transfected in Escherichia coli assessed as endonucleolytic digestion using single-stranded circular DNA plasmid M13mp18 after 2 hrs by ethidium bromide staining based agarose gel electrophoresis; design: species or system Influenza A virus (A/X-31(H3N2))
[7] = Cytotoxicity against human Huh5-2 cells assessed as cell viability after 72 hrs by Alamar blue dye based colorimetric analysis; design: species or system Huh-5-2; conditions: read-out: LC50
[8] = Dissociation constant, pKa of compound; assay type: physicochemical
[9] = biological target: T2, Nonstructural protein 5A (Hepatitis C virus) (UniProt Q5L478); test: Inhibition of HCV NS5A in Huh5-2 replicon cells at 100 uM propidium iodide staining based confocal microscopic analysis; assay type: cell-based; conditions: Hepacivirus hominis
T2 sequence (whole entry): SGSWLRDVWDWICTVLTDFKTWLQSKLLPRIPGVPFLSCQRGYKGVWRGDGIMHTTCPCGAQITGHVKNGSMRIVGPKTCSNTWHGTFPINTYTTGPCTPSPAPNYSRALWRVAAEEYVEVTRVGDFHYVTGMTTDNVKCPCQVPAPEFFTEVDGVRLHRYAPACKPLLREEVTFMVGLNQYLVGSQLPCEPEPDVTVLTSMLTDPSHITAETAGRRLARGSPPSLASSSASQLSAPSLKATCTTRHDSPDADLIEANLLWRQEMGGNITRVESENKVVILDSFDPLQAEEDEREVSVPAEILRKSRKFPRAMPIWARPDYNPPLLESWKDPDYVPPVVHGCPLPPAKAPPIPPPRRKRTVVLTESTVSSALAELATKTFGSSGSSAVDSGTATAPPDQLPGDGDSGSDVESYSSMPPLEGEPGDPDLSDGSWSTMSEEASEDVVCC

[10] = system: Hepatitis C virus; test: Antiviral activity against HCV Con1 infected in human Huh5-2 cells haboring firefly luciferase expressing subgenomic replicon of HCV genotype 1b at 100 uM after 7 days by luciferase reporter gene assay; assay type: functional, organism-based; conditions: Hepacivirus hominis, isolate Con1, Huh-5-2
[11] = biological target: Polymerase acidic protein (Influenza A virus (A/Puerto Rico/8/1934(H1N1)), UniProt P03433); test: Inhibition of Influenza A/PR/8/34 virus PA endonuclease by cap dependent RNA polymerase assay

SMILES | EC50 [1] [µM] | MCC at 24 h [2] [µM] | logD [3] | EC50 [4] [µM] | Selectivity Index [5] | IC50 [6] [µM] | CC50 at 72 h [7] [µM] | pKa [8] | inhibition [9] | Activity [10] | IC50 [11] [µM]
O=C1Cn2c(cc3cc(F)ccc32)C(=O)N1O | 83.8 | ≥ 500 | 0.71 | > 500 | >2.4 | 17.3 | > 200 | 7.27 |  |  | 
O=C1Cn2c(cc3ccccc32)C(=O)N1 | > 200 |  | 0.75 |  |  | > 500 | > 200 | 9.3 |  |  | 
O=C1Cn2c(cc3ccccc32)C(=O)N1O | 126 | ≥ 500 | 0.57 | 297 | >1.6 | 12.7 | > 200 | 7.27 |  |  | 
O=C1Cn2c(cc3cc(O)ccc32)C(=O)N1O | > 200 | ≥ 500 | 0.26 | 75 |  | 29.2 | > 200 | 7.27 |  |  | 
O=C1Cn2c(cc3cc(Cl)ccc32)C(=O)N1O | 10.5 | ≥ 500 | 1.17 | 114 | >19.1 | 26.9 | > 200 | 7.27 | Active | inactive | 
O=C(O)C(=O)CC(=O)c1ccccc1 | > 200 |  | -1.73 |  |  | 5.4 | > 200 | 2.85 |  |  | 
O=C1Cc2ccccc2CC(=O)N1O |  |  |  |  |  |  |  |  |  |  | > 500
COc1ccc2c(c1)cc1n2CC(=O)N(O)C1=O | > 200 | ≥ 500 | 0.41 | 48 |  | 23 | > 200 | 7.27 |  |  | 
